PubChem BioAssay (NCI)
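Each compound was tested at five concentrations against cells in 96-well plates for 48 hours. GI50 = concentration required for 50% inhibition of growth. TGI: total growth inhibition.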

Assays:
Assay in all cases: NCI tumour cell line growth inhibition, 48 h
[1] = tested on: CCRF-CEM leukemia
[2] = tested on: OVCAR-8 ovarian
[3] = tested on: IGROV1 ovarian
[4] = tested on: HOP-92 NSCLC
[5] = tested on: UACC-62 melanoma
[6] = tested on: HCC-2998 colon
[7] = tested on: NCI-H460 lung
[8] = tested on: NCI/ADR-RES ovarian
[9] = tested on: SF-295 CNS
[10] = tested on: OVCAR-5 ovarian

| SMILES | GI50 [1] [µM] | TGI [1] [µM] | GI50 [2] [µM] | TGI [2] [µM] | GI50 [3] [µM] | TGI [3] [µM] | GI50 [4] [µM] | TGI [4] [µM] | GI50 [5] [µM] | TGI [5] [µM] | GI50 [6] [µM] | TGI [6] [µM] | GI50 [7] [µM] | TGI [7] [µM] | GI50 [8] [µM] | TGI [8] [µM] | GI50 [9] [µM] | TGI [9] [µM] | GI50 [10] [µM] | TGI [10] [µM] |
| --- | --- | --- | --- | --- | --- | --- | --- | --- | --- | --- | --- | --- | --- | --- | --- | --- | --- | --- | --- | --- |
| CCCNC(=S)N/N=C(\C)c1ccccn1 | 0.018 | > 100 | 0.0667 | > 100 | < 0.01 | > 100 | 0.115 | > 100 | 0.192 | 3.28 | 0.523 | > 100 | 0.242 | 4.92 | 0.0365 | > 100 | 0.294 | > 100 | 0.529 | > 100 |
| COc1ccc(S(=O)(=O)N(Cc2ccc3c(n2)C=CC(C)(C)O3)C2CCC2)cc1OC | < 0.01 | 0.0922 | < 0.01 |  | < 0.01 | 0.262 | < 0.01 | < 0.01 | < 0.01 | 0.05 | < 0.01 | 3.79 | 0.0196 |  | 0.13 | > 100 | 0.0134 | 0.542 | < 0.01 | 7.25 |
| COC(=O)[C@]12CCC(C)(C)C[C@H]1C1=CC[C@@H]3[C@@]4(C)C/C(=C/c5cccnc5)C(=O)C(C)(C)[C@@H]4CC[C@@]3(C)[C@]1(C)CC2 | 2.81 | 13.7 | 3.82 | 60.8 | 5.2 | 31.5 | 1.87 | 8.41 | 2.89 | 12.8 | 5.56 | 19.5 | 5.53 | 26.6 | 6.75 | 32.5 | 9.67 | 40.4 | 14.1 | 38.2 |
| O=C(CCCSc1nc(-c2ccc(Cl)cc2)cc(-c2ccc(Cl)cc2)n1)NO | 0.517 | > 100 | 0.558 | 28.6 | 1.15 | 11.2 | 2.51 | 11.7 | 0.946 | 3.1 | 2.78 | 10.3 | 0.44 | 4.11 | 0.31 | 1.9 | 1.17 | 6.9 | 1.42 | 9.01 |
| COc1cccc(NCc2nnc(Nc3ccc(Cl)cc3)c3ccccc23)c1 | 2.73 | 13.4 | 3.61 | 14.7 | 0.904 | 6.3 | 0.329 | 2.91 | 1 | 5.76 | 3.44 | 8.79 | 2.69 | 7.14 | 2.55 | 25 | 1.94 | 8.25 | 3.38 | 11.8 |
| CC[C@H](C)[C@H](NC(=O)[C@H]1CCCCN1C)C(=O)N(C)[C@H](CCc1nc(C(=O)N[C@@H](Cc2ccccc2)C[C@H](C)C(=O)OC)cs1)C(C)C | 0.265 | > 25 | 0.717 | > 25 | 0.316 | > 25 | 0.292 | 8.33 | 0.0986 | > 25 | 0.694 | > 13.4 | 0.395 | > 10.3 | 1.38 | > 25 | 0.459 | > 25 | 1.12 | > 25 |
| CC(=O)[O][Hg][c]1c(C)c(C)c(C)c(C)c1C | 0.895 | 9.71 | 1.93 | 3.88 | 0.604 | 2.2 | 1.6 | 3.12 | 0.856 | 2.95 | 1.53 | 3.2 | 0.747 | 2.26 | 7.17 | 33.4 | 1.71 | 3.76 | 3.33 | 8.74 |
| COc1cc(Cn2c(-c3ccccc3)cc3c2-c2oncc2CC3)cc(OC)c1OC | 0.857 | > 100 | 5.38 | > 100 | 2.64 | > 100 | 12.7 | > 100 | 0.449 | 77.5 | 2.21 | > 100 | 0.452 | > 100 | 0.328 | > 100 | 0.366 | 5.57 | 6.46 | > 100 |
| O=C(O)C(Sc1ccc(Cl)cc1)Sc1ccc(Cl)cc1 |  | > 100 |  | > 100 |  | > 100 |  | 68.2 |  | 72.1 |  | 69.1 |  | > 100 |  | > 100 |  | > 100 |  | > 100 |
| CNC1C(=O)C(C)C(O)(C(CC(C)C(O)/C=C/C=C/CNC(=O)C(C)(C)C(O)\C(C)=C/C=C\C=C\Cc2cnc(C)o2)OC)C12C(=O)OC2COC (stereo not drawn) (tested in a mixture with another compound) |  | 38.5 |  | > 100 |  | > 26.2 |  | > 51.3 |  | 49.9 |  | 41.7 |  | > 100 |  | > 100 |  | > 53.3 |  | > 70.2 |
| COc1ccc(-c2cc3c(nn2)-c2ccccc2C3=O)cc1 | 9.52 | > 100 | > 100 | > 100 | > 100 | > 100 | > 100 | > 100 | > 100 | > 100 | > 100 | > 100 | > 100 | > 100 | > 100 | > 100 | > 100 | > 100 | > 100 | > 100 |
| NC(N)=NC(N)=Nc1cc2ccccc2c2ccccc12 | 8.61 | 30.5 | 5.15 | 20.6 | 4.04 | 19.1 | 1.31 | 11 | 12.1 | 25.8 | 6.89 | 24.2 | 5.13 | 19.4 | 17 | 43.2 | 13.3 | 28.4 | 11 | 24.3 |
| COc1ccc(C2CC(=O)c3c(O)c(OC)c(OC)c(OC)c3O2)c(O)c1 (stereo not drawn) | 0.134 | 31.5 | 0.294 | 40.9 | 0.535 | 39.6 | 0.0574 | 13.9 | 0.0566 | 20.2 | 0.761 | 27.2 | 0.0637 | 10.9 | 0.0565 | 20.6 | 0.349 | 14.6 | 5.57 | 93.4 |
